Laboratory results as given in patent US5231216A, “Trans-2-acylaminocyclohexyloxyacyldipeptides in the form of mixtures of diastereoisomers thereof and in the form of pure diasteredisomers, process for the preparation thereof and pharmaceutical compositions containing the same” (Univerza Edvarda Kardelja v Ljubljana, priority 1990, dated 1993).
Like-named read-outs stand apart in the source and are kept apart here.

Experiments:
[1] = system: splenic lymphocytes B; assay: Determination of the number of lymphocytes B (splenic, fluorescence microscopy); type: in vivo, female HAN-NmRI strain mice; conditions: daily doses 25, 2.5 and 0.25 μg on 3 days; spleen isolated on day 4
Procedure: (§1) Immunological studies were performed on female HAN-NmRI strain mice of 3-4 weeks, weighing from 17-20 g.
(§2) In tests 1.1 to 1.5, the animals were first administered the Brewer's thioglycolate medium by i.p. injection, which was followed after 6 hours by the injection of 0.5 ml of a solution containing 25 μg, 2.5 μg and 0.25 μg respectively of N-acetyl-muramyl-L-alanyl-D-isoglutamine (muramyl dipeptide, MDP) or of N-[trans-2-(2'-acetylaminocyclohexyloxy)acetyl]-L-alanyl-D-glutaminic acid (compound 1, Example 12B). Equal doses were administered to the animals on days 2 and 3. On day 4 the animals were sacrificed and the spleen and the peritoneal macrophages were isolated.
(§3) To the isolated splenic lymphocytes there were added fluorescein isothiocyanate labelled antimouse antibodies (for the determination of lymphocytes B) and anti-Thy 1 monoclonal antibodies (for the determination of lymphocytes T) respectively. After incubation and rinsing with RPMI 1640 medium (Gibco, Great Britain), the lymphocytes were counted by fluorescence microscopy.

[2] = system: splenic lymphocytes T; assay: Determination of the number of lymphocytes T (splenic, fluorescence microscopy); type: in vivo, female HAN-NmRI strain mice; conditions: daily doses 25, 2.5 and 0.25 μg on 3 days; spleen isolated on day 4
Procedure: as §1, §2, §3

[3] = system: peritoneal macrophages; assay: Determination of the number of macrophages in peritoneal cavity washings; type: in vivo, female HAN-NmRI strain mice; conditions: daily doses 25, 2.5 and 0.25 μg on 3 days; after Brewer's thioglycolate stimulation
Procedure: as §1, §2
The number of macrophages in the peritoneal cavity washings was determined three days after the stimulation with Brewer's thioglycolate medium. The cells were suspended in ice-cold RPMI 1640 medium, to which trypan blue was added, and counted in Neubauer's chamber.

[4] = system: splenic lymphocytes (lymphocytes T) stimulated with concanavalin A; assay: Blast transformation of lymphocytes stimulated in vitro with concanavalin A after in vivo treatment; design: species or system female HAN-NmRI strain mice; conditions: for Amount of active thymidine incoporated in lymphocyte DNA (cpm), x ± s.e.m (n): control 10130 ± 476
Procedure: as §1, §2
Isolated splenic lymphocytes were prepared in a concentration of 1×10^6 /ml in the RPMI 1640 medium, to which there were added 10% of foetal calf serum (FCS) (Sera-Lab, Great Britain), 1 ml of 200 mM L-glutamine solution and 1 ml of an antibiotic solution (100 U/ml of penicillin and 100 μg/ml of streptomycin) for 100 ml of complete medium. To each flat bottom well of a microtitration plate (T grade, Nunc, Denmark) 100 μl of the cell suspension were distributed. The cells were stimulated in vitro by adding concanavalin A (con A)(Pharmacia, Sweden) at respective concentrations of 16, 8, and 4 μg/ml. Control lymphocyte cultures were grown in basal medium only. The cells were then incubated at 37° C., 5% CO2 and 95% humidity for 2 days, followed by the addition of tritium labelled thymidine. After 16 hours the samples were prepared for the measurement in a β-counter. The results were expressed as incorporation indexes with respect to the control group of the animals.

[5] = system: peritoneal macrophages; assay: Activation of peritoneal macrophages (ferricytochrome C reduction) without additional PMA stimulation; type: in vivo, female HAN-NmRI strain mice; conditions: for Difference in absorbancies of the test sample and of the blank per mg of cell protein, x ± s.e.m (n): control 275 ± 26
Procedure: as §1, §2
(§4) The peritoneal cavity of the animals was rinsed with 4 ml of ice-cold RPMI 1640 medium. The cytolysis of erythrocytes was effected with 0.2% NaCl. The remaining cells were washed twice in a cooled centrifuge at 4° and 1500 rpm for 5 minutes with ice-cold RPMI 1640 medium. The cells were re-suspended and the concentration was adjusted to 1.5×10^6 /ml. The cell suspension was distributed among the flat bottom wells of a microtitration palte (T grade, Nunc, Denmark). After incubating for 2 hours at 37° C., 5% CO2 and 95% humidity, the wells were rinsed with warm RPMI 1640 medium and the adhering macrophages were used for testing.
(§5) After incubating for 90 minutes at 37° C., 5% CO2 and 95% humidity, the absorbance was measured at the wavelength of 570 nm.
(§6) The results are shown in Table 2 as the difference in the absorbance of the test sample and of the blank, calculated for 1 mg of cell protein.

[6] = system: peritoneal macrophages; assay: Activation of peritoneal macrophages (ferricytochrome C reduction) with additional in vitro PMA stimulation; type: in vivo, female HAN-NmRI strain mice; conditions: for Difference in absorbancies of the test sample and of the blank per mg of cell protein, x ± s.e.m (n): control 1004 ± 38
Procedure: as §1, §2, §4, §5, §6

[7] = system: lymphocytes B; assay: Determination of haemolytic plaques for the assessment of the maturation of lymphocytes B; type: in vivo, female HAN-NmRI strain mice; conditions: evaluation summary
Procedure: as §1
A 1% suspension of sheep erythrocytes (Institute of Microbiology, Faculty of Medicine, Ljubljana, Yugoslavia) in physiological saline was used for the immunisation. First, individual mice were administered 0.2 ml of this suspension by i.p. injection, followed next day by 0.1 ml (1 μg/mouse) of the test substance. The immunisation was completed on the fifth day after the administration of sheep erythrocytes and the mice were sacrificed.
Their spleens were removed and homogenized in Parker 199 Medium with added aminoacids, streptomycin and sodium carbonate (Torlak, Beograd, Yugoslavia). The lymphocytes were separated on the Ficol Separating Medium (Pharmacia, Uppsala, Sweden). After repeated rinsing with Parker 199 Medium, the cells were resuspended in RPMI 1640 nutrient medium with added 10% of foetal calf serum and streptomycin. To 50 μl of the cell suspension, 450 μl of trypan blue were added and the cells were counted in Neubauer's chamber. The number of lymphocytes per ml of the cell suspension was calculated. […] After the completion of the incubation, the plaques were counted under microscope.
The number of plaques per 1×10^6 cells was calculated according to the following equations: [formula]

[8] = Pyrogenous activity according to USP XXII; type: in vivo; conditions: method of USP XXII
Procedure: The pyrogenous activity was determined according to the method of USP XXII.

[9] = Toxicity, average lethal dose (LD50); type: in vivo; conditions: i.v. application, male mice
Procedure: The average lethal dose (LD50) at i.v. application of the compound 1 in male mice was >500 mg/kg.

[10] = system: Fibrosarcoma SA-1; conditions: for Time needed for the tumour growth to the volume of 150 mm^3, Number of days (± SD) / Growth delay (± SD): 5 doses; for Time needed for the tumour growth to the volume of 150 mm^3, Number of days (± SD): control 5.5 ± 0.8
Procedure: The studies were performed on A/J strain mice (Institute Rudjer Boskovic, Zagreb, Yugoslavia) of 8 to 10 weeks. All animals used in the same experiment were of the same sex and age.
Fibrosarcoma SA-1 was used as the experimental tumour model. Tumorous cells were obtained from the ascitic form of the SA-1 tumour of the syngeneic A/J mouse. They were implanted into animals dorsilaterally by s.c. injection of 5×10^5 tumour cells. The testing was started after the tumours had grown to a volume of 35 mm^3. The test substance was injected i.p. on five consecutive days in a dose of 2.5 or 25 μg. The growth of the tumours was monitored by measuring the diameters and the thickness of the tumours. The tumour volumes were calculated according to the formula 0.523×a×b×c (a, b and c being the tumour diameters).
The delay in the growth of each individual tumour was obtained by deducting the relevant time of growth of the tumour in the control group from the time needed for the growth of the tumour to reach the volume of 150 mm^3.

[11] = daily dose 0.25 μg for 3 consecutive days
[12] = daily dose 2.5 μg for 3 consecutive days
[13] = daily dose 25 μg for 3 consecutive days

For `CC(=O)N[C@@H]1CCCC[C@H]1OCC(=O)N[C@@H](C)C(=O)N[C@H](CCC(=O)O)C(=O)O` (relative stereo) [Compound 1, N-[trans-2-(2'-acetylaminocyclohexyloxy)acetyl]-L-alanyl-D-glutaminic acid], which “number of splenic lymphocytes B” value [1] is on record?
The value was “Neither the number of splenic lymphocites B nor of lymphocytes T was altered to a statistically significant extent”.

What about the “number of splenic lymphocytes T” value [2] of the same molecule?
Its value is “Neither the number of splenic lymphocites B nor of lymphocytes T was altered to a statistically significant extent”.

And the “number of peritoneal macrophages” value [3]?
Its value is “not altered to a statistically significant extent”.

And the “Amount of active thymidine incoporated in lymphocyte DNA (cpm), x ± s.e.m (n)” value (“Amount of active thymidine incoporated” for short) [4, 11]?
Its value is 10780 ± 2680 cpm.

What about the “Amount of active thymidine incoporated” value [4, 12] of the same molecule?
The value was 16830 ± 6610 cpm.

And the “Amount of active thymidine incoporated” value [4, 13]?
The value was 25990 ± 7850 cpm.

What about the “immunomodulatory effect in lymphocytes T compared with MDP” value ([4]; dose 25 μg) of the same molecule?
The value was “statistically greater (p<0.05) immunomodulatory effect”.

What about the “increase of the blastic activity of lymphocytes T” value ([4]; dose 25 μg, p<0.05, versus control) of the same molecule?
Its value is “about 150%”.

What about the “Difference in absorbancies of the test sample and of the blank per mg of cell protein, x ± s.e.m (n)” value ([5]; daily dose 0.25 μg) of the same molecule?
Its value is 237 ± 94.

And the “Difference in absorbancies of the test sample and of the blank per mg of cell protein, x ± s.e.m (n)” value ([5]; daily dose 2.5 μg)?
Its value is 431 ± 85.

And the “Difference in absorbancies of the test sample and of the blank per mg of cell protein, x ± s.e.m (n)” value ([5]; daily dose 25 μg)?
The value was 489 ± 97.

And the “increase of macrophage activity” value ([5]; dose 2.5 μg, p<0.06)?
Its value is 55%.

And the “difference in macrophage activation between muramyl dipeptide and compound 1” value ([5]; dose 25 μg)?
The value was “no statistically significant different”.

And the “increase of macrophage activity” value ([5]; dose 25 μg, p<0.05)?
Its value is 70%.

And the “Difference in absorbancies of the test sample and of the blank per mg of cell protein, x ± s.e.m (n)” value [6, 11]?
Its value is 1298 ± 334.

And the “Difference in absorbancies of the test sample and of the blank per mg of cell protein, x ± s.e.m (n)” value [6, 12]?
Its value is 1494 ± 199.

What about the “Difference in absorbancies of the test sample and of the blank per mg of cell protein, x ± s.e.m (n)” value [6, 13] of the same molecule?
The value was 1709 ± 374.

What about the “increase of macrophage activity” value ([6]; dose 2.5 μg, p<0.05) of the same molecule?
The value was 50%.

What about the “difference in macrophage activation between muramyl dipeptide and compound 1” value ([6]; dose 25 μg) of the same molecule?
The value was “no statistically significant different”.

What about the “increase of macrophage activity” value ([6]; dose 25 μg) of the same molecule?
The value was 70%.

What about the “maturation of lymphocytes B to plasma cells” value [7] of the same molecule?
Its value is “enhances the muturation of lymphocytes B to plasma cells”.

What about the pyrogenous activity [8] of the same molecule?
Its pyrogenous activity is “did not show any pyrogenous activity”.

What about the “average lethal dose (LD50)” value [9] of the same molecule?
The value was > 500 mg/kg.

What about the “Time needed for the tumour growth to the volume of 150 mm^3, Number of days (± SD)” value ([10]; 2.5 μg daily i.p.) of the same molecule?
Its value is 6.4 ± 0.9 days.

What about the “Growth delay (± SD)” value ([10]; 2.5 μg daily i.p., p<0.2 compared with control) of the same molecule?
Its value is 0.9 ± 0.4.

And the “Time needed for the tumour growth to the volume of 150 mm^3, Number of days (± SD)” value ([10]; 25.0 μg daily i.p.)?
The value was 7.3 ± 1.3 days.

And the “Growth delay (± SD)” value ([10]; 25.0 μg daily i.p., p<0.002 compared with control)?
Its value is 1.8 ± 0.4.

And the “difference in antitumour activity between the higher and the lower dose” value ([10]; 25 μg versus 2.5 μg)?
The value was “no statistically significant difference in activity between the higher and the lower dose”.

And the “delay in tumour growth in combination with tumour necrosis factor” value ([10]; compound 1 2.5 μg combined with recombinant tumour necrosis factor α (5×10^5 U))?
The value was “increased delay in tumour growth”.

And the “antitumour activity in comparison to the control” value ([10]; dose 25 μg, p<0.002)?
The value was “moderate and statistically significant”.
